Experiment [1] deals with T1, Prostaglandin G/H synthase 1 (Mus musculus, UniProt P22437).
T1 sequence (P22437 whole entry): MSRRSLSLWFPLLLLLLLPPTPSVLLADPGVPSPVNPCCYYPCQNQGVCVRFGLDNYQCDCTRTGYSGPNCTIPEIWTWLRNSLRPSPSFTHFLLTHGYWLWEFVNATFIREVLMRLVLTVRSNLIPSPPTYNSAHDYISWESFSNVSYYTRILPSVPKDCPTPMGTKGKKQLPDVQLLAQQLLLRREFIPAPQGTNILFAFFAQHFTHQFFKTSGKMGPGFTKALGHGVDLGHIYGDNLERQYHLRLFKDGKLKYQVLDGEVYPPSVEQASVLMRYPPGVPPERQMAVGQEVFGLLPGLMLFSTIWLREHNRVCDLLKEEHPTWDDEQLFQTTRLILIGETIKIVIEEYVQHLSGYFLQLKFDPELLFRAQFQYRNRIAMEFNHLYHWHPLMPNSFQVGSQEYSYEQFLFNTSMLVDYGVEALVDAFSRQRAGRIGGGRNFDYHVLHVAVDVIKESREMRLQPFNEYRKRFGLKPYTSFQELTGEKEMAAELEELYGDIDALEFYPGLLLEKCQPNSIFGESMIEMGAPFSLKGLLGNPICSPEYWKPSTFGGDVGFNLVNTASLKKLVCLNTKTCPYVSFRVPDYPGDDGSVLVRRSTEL
As to the kind of experiment: Inhibition of COX1 in arachidonic acid-stimulated mouse J774 cells assessed as inhibition of PGE2 production after 15 mins by radioimmunoassay. It counts as cell-based.

Another experiment relates to J774. As to the kind of experiment: Selectivity ratio of IC50 for COX1 in arachidonic acid-stimulated mouse J774 cells to IC50 for COX2 in LPS-stimulated mouse J774 cells. The experiment is classed as cell-based.
Experiment [2] has as its target T2, Prostaglandin G/H synthase 2 (Mus musculus, UniProt Q05769).
T2 sequence (Q05769 whole entry): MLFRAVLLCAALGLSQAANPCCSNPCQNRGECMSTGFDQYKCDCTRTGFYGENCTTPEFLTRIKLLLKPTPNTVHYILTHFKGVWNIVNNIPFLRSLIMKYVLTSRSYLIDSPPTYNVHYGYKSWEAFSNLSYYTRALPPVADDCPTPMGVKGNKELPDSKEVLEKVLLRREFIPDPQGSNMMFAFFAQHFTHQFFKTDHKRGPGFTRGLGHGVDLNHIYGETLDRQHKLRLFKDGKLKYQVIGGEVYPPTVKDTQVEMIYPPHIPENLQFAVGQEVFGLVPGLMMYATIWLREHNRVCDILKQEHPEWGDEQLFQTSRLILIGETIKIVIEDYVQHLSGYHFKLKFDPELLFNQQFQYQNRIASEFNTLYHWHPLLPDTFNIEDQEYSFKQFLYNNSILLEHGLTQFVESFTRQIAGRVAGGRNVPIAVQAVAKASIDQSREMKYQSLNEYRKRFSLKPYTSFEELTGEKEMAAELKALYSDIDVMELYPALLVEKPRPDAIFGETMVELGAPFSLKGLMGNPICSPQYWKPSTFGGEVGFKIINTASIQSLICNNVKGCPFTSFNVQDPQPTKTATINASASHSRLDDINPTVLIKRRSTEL
Description: Inhibition of COX2 in LPS-stimulated mouse J774 cells assessed as inhibition of PGE2 production after 15 mins by radioimmunoassay

Experiment [3] has as its system Rattus norvegicus. Put plainly: Antiinflammatory activity against carrageenan-induced paw edema in rat assessed as paw volume at 20 mg/kg, po administered 4 hrs post carrageenan challenge measured after 60 mins. It counts as functional.
Experiment [4] deals with Mus musculus. Put plainly: Analgesic activity against acetic acid-induced writhing in Swiss albino mouse assessed as number of writhes at 10 mg/kg, po administered 30 mins before test. It counts as functional.
Experiment [5] deals with Mus musculus. Put plainly: Analgesic activity against acetic acid-induced writhing in Swiss albino mouse assessed as number of writhes at 20 mg/kg, po administered 30 mins before test. The experiment is classed as functional.
Experiment [6] concerns Mus musculus. Put plainly: Analgesic activity against acetic acid-induced writhing in po dosed Swiss albino mouse assessed as number of writhes administered 30 mins before test. The experiment is classed as functional, organism-based.
Experiment [7] deals with Prostaglandin G/H synthase 1 (Homo sapiens, UniProt P23219). Put plainly: Inhibition of COX1 in human whole blood assessed as inhibition of LPS-stimulated PGE2 production by radioimmunoassay. It counts as tissue-based.
The target of experiment [8] is T3, Prostaglandin G/H synthase 2 (Homo sapiens, UniProt P35354).
T3 sequence (P35354 whole entry): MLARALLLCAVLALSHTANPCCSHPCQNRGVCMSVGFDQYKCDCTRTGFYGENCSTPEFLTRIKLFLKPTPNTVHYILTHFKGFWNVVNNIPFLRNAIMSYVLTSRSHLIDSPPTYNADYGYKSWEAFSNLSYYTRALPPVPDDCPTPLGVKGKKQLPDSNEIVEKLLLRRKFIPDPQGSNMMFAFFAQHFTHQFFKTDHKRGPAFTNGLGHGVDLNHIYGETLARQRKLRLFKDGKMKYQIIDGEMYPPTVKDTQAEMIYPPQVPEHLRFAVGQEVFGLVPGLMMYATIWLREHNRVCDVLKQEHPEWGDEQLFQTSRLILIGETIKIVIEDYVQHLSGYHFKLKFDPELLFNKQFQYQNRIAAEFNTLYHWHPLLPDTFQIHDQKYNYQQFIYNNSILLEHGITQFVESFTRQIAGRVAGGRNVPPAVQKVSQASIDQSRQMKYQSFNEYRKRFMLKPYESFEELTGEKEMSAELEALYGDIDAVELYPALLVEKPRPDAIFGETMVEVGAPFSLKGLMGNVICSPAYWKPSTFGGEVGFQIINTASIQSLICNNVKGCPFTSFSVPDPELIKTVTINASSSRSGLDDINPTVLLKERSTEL
As to the kind of experiment: Inhibition of COX2 in human whole blood assessed as inhibition of TXB2 production by radioimmunoassay. It counts as tissue-based.

Experiment [9] deals with Rattus norvegicus. As to the kind of experiment: Analgesic activity against carrageenan-induced hyperalgesia in rat assessed as paw pressure at 20 mg/kg, po after 30 mins. It counts as functional.
Experiment [10] has as its system Rattus norvegicus. Put plainly: Analgesic activity against carrageenan-induced hyperalgesia in rat assessed as paw pressure at 20 mg/kg, po after 60 mins. It counts as functional.
The subject of experiment [11] is Rattus norvegicus. As to the kind of experiment: Analgesic activity against carrageenan-induced hyperalgesia in rat assessed as paw pressure at 20 mg/kg, po after 120 mins. The experiment is classed as functional.

SMILES strings stand for the structures.

The values below come from ChEMBL document CHEMBL1140067, “Synthesis, in vitro, and in vivo biological evaluation and molecular docking simulations of chiral alcohol and ether derivatives of the 1,5-diarylpyrrole scaffold as novel anti-inflammatory and analgesic agents” (Bioorg Med Chem, 2008).

Prostaglandin G/H synthase 1 (Homo sapiens, UniProt P23219), sequence (P23219 whole entry): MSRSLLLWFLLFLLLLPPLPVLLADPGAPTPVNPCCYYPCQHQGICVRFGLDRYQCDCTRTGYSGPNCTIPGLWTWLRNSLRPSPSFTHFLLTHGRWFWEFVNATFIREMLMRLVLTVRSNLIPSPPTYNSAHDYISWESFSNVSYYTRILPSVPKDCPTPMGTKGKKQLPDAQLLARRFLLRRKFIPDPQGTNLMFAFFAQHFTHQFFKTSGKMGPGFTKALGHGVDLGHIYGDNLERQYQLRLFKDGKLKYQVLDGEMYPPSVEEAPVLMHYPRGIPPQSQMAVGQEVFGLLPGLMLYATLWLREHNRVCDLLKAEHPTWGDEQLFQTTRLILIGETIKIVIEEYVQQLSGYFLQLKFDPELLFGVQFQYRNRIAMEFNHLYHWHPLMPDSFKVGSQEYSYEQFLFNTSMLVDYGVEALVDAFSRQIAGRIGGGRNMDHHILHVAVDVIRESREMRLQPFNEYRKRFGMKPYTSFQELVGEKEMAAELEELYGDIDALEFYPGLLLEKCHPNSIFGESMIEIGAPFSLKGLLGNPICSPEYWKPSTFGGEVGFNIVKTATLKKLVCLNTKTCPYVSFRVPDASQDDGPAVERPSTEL

With `CCOC(=O)[C@@H](OCC)c1cc(-c2ccc(S(C)(=O)=O)cc2)n(-c2ccc(OC)cc2)c1C`, the IC50 was more than 100 µM in [1] and 0.14 µM in experiment [2]. Further, in the experiment on J774, the Ratio IC50 was more than 700.
With `CCOC(=O)[C@H](OCC)c1cc(-c2ccc(S(C)(=O)=O)cc2)n(-c2cccc(F)c2)c1C`, the IC50 is more than 100 µM in experiment [1] and 0.81 µM in experiment [2]. In the experiment on J774, the Ratio IC50 was more than 100.
As for `CCOC(=O)[C@@H](OCC)c1cc(-c2ccc(S(C)(=O)=O)cc2)n(-c2cccc(F)c2)c1C`, the values for the IC50 in experiment [1] and in experiment [2] were more than 100 µM and 0.25 µM, respectively. In addition, in the experiment with J774, the Ratio IC50 was more than 400.
With `CCOC(=O)C(O)c1cc(-c2ccc(S(C)(=O)=O)cc2)n(-c2ccccc2)c1C` (racemic), the IC50 in experiment [1] was more than 100 µM.
Regarding `CCOC(=O)C(O)c1cc(-c2ccc(S(C)(=O)=O)cc2)n(-c2cccc(F)c2)c1C` (racemic), the Activity with Rattus norvegicus [3] is 1.4 mL; in the experiment on Mus musculus [4], 26.3; in the experiment with Mus musculus [5] it was 16.1; in the experiment with Mus musculus [6], “Dose-dependent effect”; with Rattus norvegicus [9], 54.8 g; with Rattus norvegicus [10], 45.2 g. Besides, in the experiment on Rattus norvegicus [11], the Activity was found to be 47.5 g. Further, the IC50 is more than 100 µM in experiment [1], 21.3 µM in [7], 3.8 µM in experiment [8] and 0.12 µM in [2]. Moreover, the Ratio IC50 with J774 was more than 800.
Regarding `CCOC(=O)[C@H](OCC)c1cc(-c2ccc(S(C)(=O)=O)cc2)n(-c2ccccc2)c1C`, the IC50 in experiment [1] was more than 100 µM; in experiment [2], 0.14 µM. Also, the Ratio IC50 in the experiment on J774 is more than 700.
With `CCOC(=O)C(OCC)c1cc(-c2ccc(S(C)(=O)=O)cc2)n(-c2ccc(OC)cc2)c1C` (racemic), the IC50 was more than 100 µM in experiment [1] and 0.13 µM in experiment [2]. Moreover, the Ratio IC50 in the experiment with J774 is more than 800.
`CCOC(=O)[C@@H](O)c1cc(-c2ccc(S(C)(=O)=O)cc2)n(-c2ccccc2)c1C`: the IC50 in experiment [1] is more than 100 µM.
With `CCOC(=O)C(OCC)c1cc(-c2ccc(S(C)(=O)=O)cc2)n(-c2ccccc2)c1C` (racemic), the IC50 was more than 100 µM in experiment [1] and 0.18 µM in [2]. Further, the Ratio IC50 with J774 was more than 800.
Regarding `CCOC(=O)C(O)c1cc(-c2ccc(S(C)(=O)=O)cc2)n(-c2ccc(OC)cc2)c1C` (racemic), the IC50 in experiment [1] is more than 100 µM.
Same read-out and setting: for `CCOC(=O)[C@@H](O)c1cc(-c2ccc(S(C)(=O)=O)cc2)n(-c2ccc(OC)cc2)c1C` the value was more than 100 µM.
`CCOC(=O)[C@@H](O)c1cc(-c2ccc(S(C)(=O)=O)cc2)n(-c2cccc(F)c2)c1C`: the IC50 in experiment [1] is more than 100 µM; in experiment [2] it was 1.1 µM. In addition, the Ratio IC50 with J774 was more than 90.
For `CCOC(=O)C(OCC)c1cc(-c2ccc(S(C)(=O)=O)cc2)n(-c2cccc(F)c2)c1C` (racemic) the same measures were more than 100 µM, 0.1 µM and more than 1000.
`CCOC(=O)[C@H](O)c1cc(-c2ccc(S(C)(=O)=O)cc2)n(-c2cccc(F)c2)c1C`: the IC50 was more than 100 µM in [1] and 0.075 µM in experiment [2]. Moreover, the Ratio IC50 in the experiment on J774 is more than 1300.
Regarding `CCOC(=O)[C@H](OCC)c1cc(-c2ccc(S(C)(=O)=O)cc2)n(-c2ccc(OC)cc2)c1C`, the IC50 in experiment [1] was more than 100 µM; in experiment [2] it was 0.09 µM. The Ratio IC50 in the experiment with J774 was more than 1100.
Consider `CCc1cccc2c3c([nH]c12)C(CC)(CC(=O)O)OCC3` (configuration not stated) [ETODOLAC], for which the half-inhibitory concentration (IC50) in experiment [8] was 2 µM.
As to `CCOC(=O)[C@@H](OCC)c1cc(-c2ccc(S(C)(=O)=O)cc2)n(-c2ccccc2)c1C`, the IC50 in [1] was more than 100 µM; in experiment [2] it was 0.1 µM. Besides, in the experiment with J774, the Ratio IC50 is more than 1000.
As for `CCOC(=O)[C@H](O)c1cc(-c2ccc(S(C)(=O)=O)cc2)n(-c2ccccc2)c1C`, in experiment [1], the half-maximal inhibitory concentration (IC50) is more than 100 µM.
Consider `CCOC(=O)[C@H](O)c1cc(-c2ccc(S(C)(=O)=O)cc2)n(-c2ccc(OC)cc2)c1C`, for which the 50% inhibitory concentration (IC50) in experiment [1] is more than 100 µM.
